Reference: the supplement of paper PMC10307832

Each cell line was assayed with CC(C)C[C@@H](C(=O)N[C@H](C(=O)OC1CCCC1)c1ccccc1)[C@H](O)C(=O)NO [Tosedostat] + Nc1ncn([C@H]2C[C@H](O)[C@@H](CO)O2)c(=O)n1 [Decitabine] (partner 2 µM) (assay: relative viability (nuclei count vs DMSO), 5 days (fraction); higher = more cells survive). Details: first compound 0.02 µM.
Method in brief: (§1)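 Medians of duplicate plates are given as relative viability. That measure is the nuclei count in treated wells divided by the count in vehicle wells. Counts were taken on 4× images of lung cancer cell lines in 1536-well plates, 5 days after pin-tool dosing the day after seeding with one drug alone or a fixed anchor-drug dose plus five library-drug doses (not always all listed) in √10 steps.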

Going from NCI-H2342 to SK-MES-1, the relative viability falls from 0.713 to 0.356.

Going from H3255 to COR-L23, the relative viability falls from 0.595 to 0.465.

Compared with COR-L 105, LU99A is higher in relative viability: 0.747 for the first, 0.906 for the second.

Going from ChaGo-K-1 to NCI-H2170, the relative viability falls from 0.487 to 0.454.

Compared with NCI-H460, A549 is lower in relative viability: 0.514 for the first, 0.264 for the second.

Going from SW 900 to NCI-H1648, the relative viability falls from 0.463 to 0.389.

Going from NCI-H1395 to NCI-H1793, the relative viability falls from 0.888 to 0.429.

Going from NCI-H1944 to ABC-1, the relative viability rises from 0.456 to 1.17.

In the case of NCI-H358, the relative viability is reported as 0.238.

Same assay, conditions: first compound 0.06325 µM

First: NCI-H522
Second: SK-LU-1
The relative viability of the first is lower: 0.619 for the first, 0.651 for the second.

Compared with NCI-H1792, NCI-H2087 is lower in relative viability: 0.506 for the first, 0.23 for the second.

First: NCI-H596
Second: NCI-H1355
The relative viability of the first is higher: 1.13 for the first, 0.357 for the second.

Compared with SW 1573, LCLC-103H is higher in relative viability: 0.504 for the first, 0.745 for the second.

First: NCI-H727
Second: NCI-H2405
The relative viability of the first is higher: 0.9 for the first, 0.733 for the second.

First: EMC-BAC-2
Second: NCI-H23
The relative viability of the first is higher: 0.964 for the first, 0.315 for the second.

First: HCC-366
Second: NCI-H1755
The relative viability of the first is lower: 0.369 for the first, 0.699 for the second.

First: NCI-H838
Second: LK-2
The relative viability of the first is higher: 0.449 for the first, 0.306 for the second.

Compared with NCI-H2347, NCI-H2342 is higher in relative viability: 0.609 for the first, 0.688 for the second.

Compared with SK-MES-1, H3255 is higher in relative viability: 0.372 for the first, 0.559 for the second.

Going from COR-L23 to COR-L 105, the relative viability rises from 0.411 to 0.622.

Compared with LU99A, ChaGo-K-1 is lower in relative viability: 0.769 for the first, 0.526 for the second.

Going from NCI-H2170 to NCI-H460, the relative viability falls from 0.499 to 0.466.

Going from A549 to SW 900, the relative viability rises from 0.337 to 0.499.

Going from NCI-H1648 to NCI-H1395, the relative viability rises from 0.426 to 0.689.

Compared with NCI-H1793, NCI-H1944 is lower in relative viability: 0.435 for the first, 0.431 for the second.

Compared with ABC-1, NCI-H358 is lower in relative viability: 1.13 for the first, 0.188 for the second.

Same assay, conditions: first compound 0.2 µM

Going from NCI-H522 to SK-LU-1, the relative viability falls from 0.639 to 0.563.

Going from NCI-H1792 to NCI-H2087, the relative viability falls from 0.52 to 0.24.

First: NCI-H596
Second: NCI-H1355
The relative viability of the first is higher: 1.03 for the first, 0.315 for the second.

Compared with SW 1573, LCLC-103H is higher in relative viability: 0.482 for the first, 0.728 for the second.

First: NCI-H727
Second: NCI-H2405
The relative viability of the first is higher: 0.868 for the first, 0.712 for the second.

Going from EMC-BAC-2 to NCI-H23, the relative viability falls from 0.971 to 0.323.

First: HCC-366
Second: NCI-H1755
The relative viability of the first is lower: 0.397 for the first, 0.712 for the second.

Compared with NCI-H838, LK-2 is lower in relative viability: 0.431 for the first, 0.237 for the second.

First: NCI-H2347
Second: NCI-H2342
The relative viability of the first is lower: 0.667 for the first, 0.718 for the second.

Going from SK-MES-1 to H3255, the relative viability rises from 0.325 to 0.553.

Compared with COR-L23, COR-L 105 is higher in relative viability: 0.393 for the first, 0.681 for the second.

Going from LU99A to ChaGo-K-1, the relative viability falls from 0.909 to 0.543.

Going from NCI-H2170 to NCI-H460, the relative viability falls from 0.491 to 0.457.

First: A549
Second: SW 900
The relative viability of the first is lower: 0.24 for the first, 0.405 for the second.

Going from NCI-H1648 to NCI-H1395, the relative viability rises from 0.51 to 0.715.

Compared with NCI-H1793, NCI-H1944 is higher in relative viability: 0.407 for the first, 0.458 for the second.

Compared with ABC-1, NCI-H358 is lower in relative viability: 1.27 for the first, 0.143 for the second.

Same assay, conditions: first compound 0.6325 µM

Going from NCI-H522 to SK-LU-1, the relative viability falls from 0.578 to 0.471.

First: NCI-H1792
Second: NCI-H2087
The relative viability of the first is higher: 0.465 for the first, 0.224 for the second.

Going from NCI-H596 to NCI-H1355, the relative viability falls from 0.879 to 0.332.

First: SW 1573
Second: LCLC-103H
The relative viability of the first is lower: 0.451 for the first, 0.763 for the second.

Compared with NCI-H727, NCI-H2405 is lower in relative viability: 0.794 for the first, 0.603 for the second.

Going from EMC-BAC-2 to NCI-H23, the relative viability falls from 0.877 to 0.286.

Compared with HCC-366, NCI-H1755 is higher in relative viability: 0.311 for the first, 0.716 for the second.

Going from NCI-H838 to LK-2, the relative viability falls from 0.421 to 0.262.

Going from NCI-H2347 to NCI-H2342, the relative viability rises from 0.444 to 0.692.

Compared with SK-MES-1, H3255 is higher in relative viability: 0.273 for the first, 0.531 for the second.

Compared with COR-L23, COR-L 105 is higher in relative viability: 0.405 for the first, 0.537 for the second.

Going from LU99A to ChaGo-K-1, the relative viability falls from 0.744 to 0.463.

First: NCI-H2170
Second: NCI-H460
The relative viability of the first is lower: 0.421 for the first, 0.468 for the second.

First: A549
Second: SW 900
The relative viability of the first is lower: 0.193 for the first, 0.359 for the second.

Going from NCI-H1648 to NCI-H1395, the relative viability rises from 0.421 to 0.624.

Going from NCI-H1793 to NCI-H1944, the relative viability rises from 0.222 to 0.416.

First: ABC-1
Second: NCI-H358
The relative viability of the first is higher: 1.19 for the first, 0.166 for the second.

Same assay, conditions: first compound 2 µM

Compared with NCI-H522, SK-LU-1 is lower in relative viability: 0.72 for the first, 0.454 for the second.

Going from NCI-H1792 to NCI-H2087, the relative viability falls from 0.525 to 0.225.

Going from NCI-H596 to NCI-H1355, the relative viability falls from 0.838 to 0.305.

Going from SW 1573 to LCLC-103H, the relative viability rises from 0.415 to 0.76.

First: NCI-H727
Second: NCI-H2405
The relative viability of the first is higher: 0.754 for the first, 0.657 for the second.

Going from EMC-BAC-2 to NCI-H23, the relative viability falls from 0.865 to 0.306.

Compared with HCC-366, NCI-H1755 is higher in relative viability: 0.359 for the first, 0.674 for the second.

Going from NCI-H838 to LK-2, the relative viability falls from 0.392 to 0.272.

First: NCI-H2347
Second: NCI-H2342
The relative viability of the first is lower: 0.542 for the first, 0.689 for the second.

Going from SK-MES-1 to H3255, the relative viability rises from 0.346 to 0.645.

Compared with COR-L23, COR-L 105 is higher in relative viability: 0.37 for the first, 0.596 for the second.

First: LU99A
Second: ChaGo-K-1
The relative viability of the first is higher: 0.693 for the first, 0.419 for the second.

Compared with NCI-H2170, NCI-H460 is higher in relative viability: 0.453 for the first, 0.528 for the second.

First: A549
Second: SW 900
The relative viability of the first is lower: 0.292 for the first, 0.415 for the second.

First: NCI-H1648
Second: NCI-H1395
The relative viability of the first is lower: 0.399 for the first, 0.622 for the second.

First: NCI-H1793
Second: NCI-H1944
The relative viability of the first is lower: 0.346 for the first, 0.39 for the second.

Going from ABC-1 to NCI-H358, the relative viability falls from 1.05 to 0.157.

Each cell line was assayed with CC(C)C[C@@H](C(=O)N[C@H](C(=O)OC1CCCC1)c1ccccc1)[C@H](O)C(=O)NO [Tosedostat] + CC(=O)Nc1cccc(-n2c(=O)n(C3CC3)c(=O)c3c(Nc4ccc(I)cc4F)n(C)c(=O)c(C)c32)c1 [Trametinib] (partner 0.02 µM) in the same assay as above. Details: first compound 0.02 µM.
Method in brief: as §1

Going from NCI-H522 to SK-LU-1, the relative viability falls from 0.716 to 0.648.

First: NCI-H1792
Second: NCI-H2087
The relative viability of the first is higher: 0.4 for the first, 0.181 for the second.

Work on NCI-H596 yielded a relative viability of 0.842.
